Data on one compound can be found in US10294228B2, “Breathing control modulating compounds, and methods of making and using same” (NEURAD LTD., priority 2015, dated 2019).

Structures can show the parent of a compound that is named as a salt.

The subject of one assay is anesthetized rats. Nature of the assay: Anesthetized rat spirometry screening assay (ventilatory activity, minute volume). It counts as in vivo. The note with it: 0.3 mg/kg IV bolus, increase in minute volume (VE), read-out: VE % Inc @ 0.3 mg/kg IV. In outline: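 Urethane-anesthetized (1.5 g/kg i.v.) rats with tracheal cannula to pneumotachometer; minute volume derived from respiratory rate × tidal volume. Compounds given as i.v. bolus at 0.1 and/or 0.3 and/or 3 mg/kg, monitored at least 6 min; data as 30 s averages.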

Assay [1] deals with rats with evoked obstructions. Nature of the assay: Evoked obstructive apnea model. Type of assay: in vivo, rat. As for the experimental part:
(§1) Two rodent models of obstructive apnea were used: one that modeled spontaneous obstructions (spontaneous obstructive apnea model) which become progressively worse over time, and another (evoked obstructive apnea model) where the investigator retained control over the variables that define OSA severity, such as apnea frequency (f OA) and apnea duration (OA t).
(§2) All animal experiments were performed according to protocols approved by the Institutional Animal Care and Use Committee (IACUC) at Galleon Pharmaceuticals, Inc. All experimental procedures were performed under general anesthesia. All experiments were non-survival procedures and animals were euthanized at the conclusion of the experiment prior to the animal recovering from anesthesia. Two rodent models of obstructive apnea were used, one that modeled spontaneous obstructions that become progressively worse over time (Spontaneous Obstructive Apnea Model), and another where the investigator retained control over the parameters that defined OSA severity, such as f OA, and OA t, and by controlling these directly also controlling of the magnitude of oxy-hemoglobin desaturation (Evoked Obstructive Apnea Model).

Assay [2] relates to anesthetized supine rats with spontaneous obstructive apneas. Nature of the assay: Spontaneous obstructive apnea model. Type of assay: in vivo, rat. As for the experimental part: as §1
The majority of studies were conducted using the spontaneous obstructive apnea model, where rats were positioned in dorsal recumbency (supine), and permitted to breathe spontaneously on room air. Air flow was measured continuously by whole-body plethysmography. […] OA were defined as periods of no air flow for more than 2 respiratory cycles accompanied by efforts to breathe (e.g., increased transthoracic esophageal inspiratory pressure). After neck flexion, eupnea became increasingly interrupted by clusters of upper airway obstructions (f OA 30±3 hr^−1 (mean±SEM), range: 13 to 94 hr^−1; OA t 11±3 s, range: 6 to 15 s). OA severity was further quantified by the peak change in hemoglobin oxygen saturation during an obstruction (ΔSpO2: −20±1%, range: −11 to −31%). Clustered OAs were often separated by long periods of eupneic breathing, which presumably returned when activation of a relevant afferent/effector reflex (e.g., chemoreceptor driven increased motor drive to the genioglossus muscle) reached a threshold necessary to reestablish a patent upper airway.
as §2
Rats were initially anesthetized in a rodent anesthesia induction chamber using 3% (dial setting) isoflurane in 97% oxygen (O2) for surgical instrumentation. When rats had become recumbent they were removed from the chamber and placed in dorsal recumbency (supine) on a heating pad. Anesthesia was maintained with 2% isoflurane in 98% oxygen and rats were permitted to breathe spontaneously on room air. After instrumentation, isoflurane was slowly discontinued and urethane (1.5 to 1.8 g/kg, IV) administered to maintain anesthesia without interruption. Supplemental oxygen was discontinued at this time.
The femoral artery was cannulated to permit continuous recording of arterial blood pressure and intermittent sampling of blood for pH and blood gas analyses, and single time point quantification of test article plasma concentrations. The femoral vein was cannulated to permit test compound administration and fluid support. The arterial cannula was connected to a heparinized saline filled pressure transducer. The arterial pressure waveforms were sampled at 2K/second and band-pass filtered between 0-1000 Hz. […]

In the case of `CCCNc1nc(NC)nc2c(NCC(C)(C)O)nc(NC)nc12` [Compound 31a, 1-(2,6-Bis-methylamino-8-propylamino-pyrimido[5,4-d]pyrimidin-4-ylamino)-2-methyl-propan-2-ol Hydrochloride], the change in vivo at 0.3 mg/kg in the assay with anesthetized rats worked out at 69%. The “airway (genioglossus, or GG) responses to evoked obstructions” value in assay [1] (rats, IV infusion MD 0.008 mg/kg/min 15 min then 0.002 mg/kg/min 45 min, HD 0.024 then 0.006 mg/kg/min, FIG. 21A) is listed as “increases”. Also, the “diaphragm (DIA) responses to evoked obstructions” value in assay [1] (same rats and infusions as FIG. 21A, FIG. 21B) is listed as “insignificant increases”. In addition, the SpO2 desaturations result in assay [2] (FIG. 18, model not named in the legend) is given as “reduction”. Besides, the “frequency of obstructive apneas (OA)” value in assay [2] (FIG. 19, model not named in the legend) was “reduction”. In addition, the “arterial oxygen content deficit” value in assay [2] (FIG. 20, model not named in the legend) was “reduction”. The “upper airway (total genioglossus EMG amplitude) response to spontaneous obstructive apneas” value in assay [2] (FIG. 22) is reported as “increase”. In addition, the “upper airway response (genioglossus activity) to spontaneous obstructive apneas” value in assay [2] (IV infusion, FIG. 23) is on record as “dose-dependently increases”.
